Laboratory results as given in patent US20070049538A1, “METHODS FOR USING CUCURBITACIN COMPOUNDS” (SOUTH DAKOTA STATE UNIVERSITY, priority 2005, published 2007).

Columns and labels:
[1] = Chromatographic hydrophobicity index (CHI) by RP-HPLC in buffered acetonitrile; type: physicochemical; design: key: CHI = φ0 (isocratic hydrophobicity index), = A·tR + B; ACN % scale; details: for CHIACN1: buffered acetonitrile pH 7.0, Alltima C18 250 mm, Eq. (2) from isocratic φ0; for CHIACN2: buffered acetonitrile pH 7.0, Eq. (3) calibrated against published CHI
Experimental: (§1) We used Dynamax liquid chromatograph (Varian Chromatography Systems) with PDA-2 photodiode array UV detector, controlled by the Dynamax PC Chromatography Data System (v. 1.9) software and Dynamax dual pump solvent delivery system, model SD-200. […] Cucurbitacins analytical separation was optimized on Alltima C18 (Alltech; 250 mm×4.6 mm, 5 μm) HPLC column, at gradient elution in acetonitrile (ACN, 30-70% ACN in 57 min), and in MeOH (60-75% MeOH in 50 min). Cucurbitacins stock concentration of 10^−2M in DMSO:ethanol (1:1) was standardized against pure cucurbitacin I (Indofine Chemical Company, Hillsborough, N.J.) by analytical HPLC means. Compounds CHI was measured in both ACN, by using Alltima C18 column, and in MeOH, by using Econosil C18 column (Alltech; 150 mm×4.6 mm, 5 μm). Analytical separations were conducted at a flow rate of 1 ml/min. The aqueous phase was buffered for the CHI measurement. For this purpose, solid ammonium acetate (Fisher Sci. Co., Fair Lawn, N.J.) was dissolved in deionized distilled water at 50 mM final concentration and its pH adjusted to 7.0.
All standard compounds were purchased from Acros (Acros Organics, NJ). The chromatographic lipophilicity or hydrophobicity was determined applying Valkó's technique (Valkó et al., Anal. Chem. 69 (1997) 2022, the entire disclosure of which is herein incorporated by reference). A standard mixture of seven compounds was prepared in solution: theophylline (compound 19), benzimidazole (compound 20), acetophenone (compound 21), indole (compound 22), propiophenone (compound 23), butyrophenone (compound 24), and valerophenone (compound 25). […] The retention factor, log k=log((tR-t0)/t0), was calculated for each analyte from five good injections of […] sample. The dead time (t0) was measured by injecting NaNO3 together with the sample. Then, the log k values were plotted against isocratic ACN concentrations to establish the linear regression equations for each analyte. From each straight line the isocratic hydrophobicity index was computed, φ0=(intercept/slope). Further, the calibration mixture was injected at fast gradient elution, 0-22 min 0-100% ACN, and three additional minutes at 100% ACN. The φ0 values for the test compounds were plotted against gradient retention time and the linear equation determined from the following equation: φ0=CHI=AtR+B (1)
The gradient elution conditions were similar to the one from the first approach.
(§2) Cucurbitacins lipophilicity was measured by RP-HPLC. […] Due to its high viscosity, aqueous MeOH required a shorter column than the one applied for ACN. First, the C18 columns were calibrated against a standard mixture, and the relationships established between the fast gradient tR and φ0 or published CHI (see Eqs. (2)-(4) from Table 2). Second, cucurbitacins were injected at fast gradient elution under similar conditions, and their CHI calculated (Table 4) from Eqs. (2)-(4). Eqs.

[2] = standard compounds; gradient elution and correlation with published data; cited from earlier work
[3] = Chromatographic hydrophobicity index (CHI) by RP-HPLC in buffered methanol; type: physicochemical; details: for CHIMeOH: buffered methanol pH 7.0, Econosil C18 150 mm, Eq. (4)
Experimental: as §1
A standard mixture of 10 compounds including 19-21, 23-27, aniline (compound 28) and bromobenzene (compound 29), dissolved in MeOH, was injected at five isochratic elution, at 40, 45, 50, 55, and 60% MeOH. Then the mixture was injected at fast gradient elution to establish the correlation from Eq. (1). The fast linear gradient elution was optimized for 30-100% MeOH in aqueous buffer with 10 min runtime.
as §2

[4] = tested on: HepG2 cells; assay: Cucurbitacins cytotoxicity on HepG2 cells (MTT viability assay); type: cell-based, human
Experimental: HepG2 (human hepatocellular carcinoma, ATCC) cells were grown in EMEM (Gibco, Grand Island, N.Y.) supplemented with 10% fetal bovine serum (FBS), and 1% penicillin/fungizone mixture (Gibco). Thabrew's optimized procedure (Thabrew et al., J. Pharm. Pharmcol. 49 (1994) 1442, the entire disclosure of which is herein incorporated by reference) was followed. Cells were batch cultured for 10 days, then seeded at concentration of 30,000 cells/well in fresh media in 96-well microtiter plastic plates at 37° C. for a day. Then cells were exposed to different concentrations of cucurbitacins at final volume of 100 μl/well. Five-fold serial dilution of compounds was carried out in the plate for five consecutive wells. After 24 h of incubation with chemicals, live cells were visualized using the MTT viability assay (Promega, Madison, Wis.). The absorbance was measured at 570 nm. Negative (without cells) and positive (without test chemicals) controls were also incubated with each plate. […] At least three reproducible experiments were performed per compound with three replicate wells per concentration.
Cells were challenged with cu-curbitacins at various concentrations for a day and then live cells quantified with MTT dye. This period of time measures exclusively compounds cytotoxicity, while longer incubation time may lead to interference from metabolites.

[5] = tested on: HepG2 cells; assay: cells
Text: Experimental conditions were standardized on silybin. […]
The ratio of IC50-to-EC50 (hereafter T/A) is also indicated in this table, which gives the margin between toxic and cytoprotective concentrations.

[6] = tested on: HSC-T6 cells; assay: Serum-driven HSC-T6 proliferation, experiment 1 (4 h challenge, two days drug-free growth); type: cell-based, rat; details: for EC50: HSC-T6, 4 h challenge, then two days drug-free media
Experimental: The proliferation effect of serum on HSC-T6 cells was optimized and cucurbitacin antiproliferative activity was measured. Serum contains a large number of growth factors, hormones and other nutrients, which help cells to grow and multiply. Several trials were conducted. In experiment 1, cells were challenged with cucurbitacin analogs for 4 h and then cells were grown in drug-free media for two additional days.
HSC-T6 cells were photographed under phase-contrast microscope to record possible changes in cell morphology during experiment 1. […] We are monitoring specifically the effect of compound on the cells, cell recovery after 4 h challenge, and relative cell proliferation. […] Live cells are quantified at the end of the assay (row 4) with MTT dye.
(§3) We established several experimental conditions such as 4 hours of incubation time with cucurbitacin, and 2 day cell incubation with fresh media after challenging with cucurbitacin (Exp. 1). Other experiments involved addition of cucurbitacin for 24 hours over starved cells (Exp. 2) vs. proliferating cells (Exp. 3), and one day incubation of cells with fresh media after challenge. […] Because of that, the challenge time was increased to 24 hours (Exp. 2 and 3).
We modified this approach. Our assay included a second control (ZC) supplemented with no serum intended to measure cucurbitacin anti-proliferation effect relative to the number of cells generated during challenge instead of the total number of cells present in each well.

[7] = tested on: HSC-T6 cells; assay: Serum-driven HSC-T6 proliferation, experiment 3 (24 h, proliferating cells); type: cell-based, rat; details: HSC-T6, 24 h, proliferating cells; read-out: Experiment 3 EC50 (A)
Experimental: To overcome this problem, the amount of incubation time was increased to 24 h, and cucurbitacin activity measured on starved (Exp. 2) or proliferative (Exp. 3) cells (Table 8). Cells turned quiescent when serum was not supplemented for one day (Exp. 2). Activity of a few compounds was monitored on quiescent cells, and their activity compared to the ones measured on proliferating cells (Exp. 3).
as §3, with “challenge. The 4 hour incubation period with cucurbitacin triggered anti-proliferation effect. This effect, however, was hindered by a second cycle of cell proliferation during the two-day cell growth period (see silybin, E and I glucosides, and for I-nPr).” for “challenge.”
In experiment 3, only 40% of the cells divided. The ratio of EC50 values for exp. 2 and exp. 3 varied between 3.6 and 12.7. This may indicate differential cytotoxicity of silybin and cucurbitacin analogs over quiescent and active stellate cells. In other words, compounds show higher anti-proliferative activity on active cells than on quiescent cells.

[8] = tested on: HSC-T6 cells; assay: Cytotoxicity on HSC-T6 cells (experiment 3); type: cell-based, rat; details: read-out: Experiment 3 IC50 (T)
Text: Cytotoxicity of all cucurbitacin analogs was additionally measured in experiment 3 (Table 8).

[9] = standard compounds, isochratic and gradient elution of standard mixture

SMILES	CHIACN (b) [1, 9]	CHIACN (c) [2]	CHIMeOH (b) [3, 9]	IC50 ([4]; Table 4, 24 h incubation, MTT)	IC50 ([4]; Table 5)	CHIACN1 [1]	CHIACN2 [1]	CHIMeOH [3]	cytoprotection on HepG2 cells ([5]; at 6.25% of IC50, against CCl4)	cytoprotection on HepG2 cells ([5]; at 12.5% of IC50, against CCl4)	cytoprotection on HepG2 cells ([5]; at 20% of IC50, against CCl4)	cytoprotection on HepG2 cells ([5]; at 50% of IC50, against CCl4)	EC50 [6]	EC50 [7]	IC50 [8]	IC50 ([4]; Table 7)	EC50 ([5]; read-out: EC50 cytoprotection, Table 7, HepG2 against CCl4 toxicity, estimated)	Experiment 1 anti-proliferation activity ([6]; measured at 100 μM)
c1ccc2[nH]ccc2c1 [Indole (22), indole, reference compound]	67.73 + 0.13	69.15																
Nc1ccccc1 [Aniline (28), aniline, reference compound]			29.94 ± 0.05															
CC(C)OC1=CC2C(=CCC3C2(C)C(=O)CC2(C)C(C(C)(O)C(=O)C=CC(C)(C)O)C(O)CC32C)C(C)(C)C1=O (stereo not drawn) [I-iPr]				7 ± 1 µM	7.3 ± 0.6 µM	73.87	79.94	71.55	−17.10 ± 1.54	4.15 ± 0.48	18.69 ± 0.13	41.73 ± 2.06	3.85 µM	0.25 µM	2.5 µM			
CC(C)(O)/C=C/C(=O)C(C)(O)C1C(O)CC2(C)C3CC=C4C(CC(=O)C(O)C4(C)C)C3(C)C(=O)CC12C (stereo not drawn) [iso-D]				80.3 µM	80.3 ± 3.5 µM	60.59	59.37	62.27					2.13 µM	0.06 µM	8.7 µM	80.3 µM	13.8 µM	
CC(C)(O)/C=C/C(=O)[C@](C)(O)C1[C@H](O)C[C@@]2(C)C3CC=C4C(C=C(O[C@@H]5O[C@H](CO)[C@@H](O)[C@H](O)[C@H]5O)C(=O)C4(C)C)[C@]3(C)C(=O)C[C@]12C (stereo partly drawn) [I-Gluc, cucurbitacin I glucoside]				390 ± 10 µM	390 ± 10 µM	46.48	37.50	56.41						4.15 µM	256 µM			˜20%^a^
CC(=O)OC(C)(C)C=CC(=O)C(C)(O)C1C(O)CC2(C)C3CC=C4C(C=C(OC(C)C)C(=O)C4(C)C)C3(C)C(=O)CC12C (stereo not drawn) [E-iPr]				4.3 µM	4.3 ± 0.5 µM	86.84	100.04	76.30	−0.60 ± 1.11	−7.81 ± 0.68	−7.00 ± 0.17	−32.99 ± 1.70	2.13 µM	0.32 µM	2.5 µM			
